Results as given in PubChem BioAssay AID2060498 (Molecular Pharmacology Branch, DTP, NCI, 2025).

Test system: 171881-019-R-J1-PDC tumor spheroids, viability
Experiment: Anticancer human tumor 171881-019-R-J1-PDC patient-derived invasive breast carcinoma cell line growth inhibition [GQUAD]
Conditions: spheroids with HUVEC and MSC; for IC50: curve of first compound; for viability, T/C: stronger effect = lower value
Method in brief: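 Multi-cell-type spheroids of tumor cells with HUVEC and mesenchymal stem cells, treated with drug combinations. Concentrations descend in half-log steps from near clinical Cmax, or from 10 microM where Cmax is unknown; viability read-out.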

[1] = second compound 0.0316 µM, first compound 0.000999 µM
[2] = second compound 0.0316 µM, first compound 0.00316 µM
[3] = second compound 0.0316 µM, first compound 0.00999 µM
[4] = second compound 0.0316 µM, first compound 0.0316 µM
[5] = second compound 0.0316 µM, first compound 0.0999 µM
[6] = second compound 0.0316 µM, first compound 0.316 µM
[7] = second compound 0.1 µM, first compound 0.000999 µM
[8] = second compound 0.1 µM, first compound 0.00316 µM
[9] = second compound 0.1 µM, first compound 0.00999 µM
[10] = second compound 0.1 µM, first compound 0.0316 µM
[11] = second compound 0.1 µM, first compound 0.0999 µM
[12] = second compound 0.1 µM, first compound 0.316 µM
[13] = second compound 0.316 µM, first compound 0.000999 µM
[14] = second compound 0.316 µM, first compound 0.00316 µM
[15] = second compound 0.316 µM, first compound 0.00999 µM
[16] = second compound 0.316 µM, first compound 0.0316 µM
[17] = second compound 0.316 µM, first compound 0.0999 µM
[18] = second compound 0.316 µM, first compound 0.316 µM
[19] = second compound 1 µM, first compound 0.000999 µM
[20] = second compound 1 µM, first compound 0.00316 µM
[21] = second compound 1 µM, first compound 0.00999 µM
[22] = second compound 1 µM, first compound 0.0316 µM
[23] = second compound 1 µM, first compound 0.0999 µM
[24] = second compound 1 µM, first compound 0.316 µM
[25] = second compound 3.16 µM, first compound 0.000999 µM
[26] = second compound 3.16 µM, first compound 0.00316 µM
[27] = second compound 3.16 µM, first compound 0.00999 µM
[28] = second compound 3.16 µM, first compound 0.0316 µM
[29] = second compound 3.16 µM, first compound 0.0999 µM
[30] = second compound 3.16 µM, first compound 0.316 µM
[31] = second compound 10 µM, first compound 0.000999 µM
[32] = second compound 10 µM, first compound 0.00316 µM
[33] = second compound 10 µM, first compound 0.00999 µM
[34] = second compound 10 µM, first compound 0.0316 µM
[35] = second compound 10 µM, first compound 0.0999 µM
[36] = second compound 10 µM, first compound 0.316 µM
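Also: spheroids exposed to compounds for 7 days.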
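For viability, T/C in this document: 100% = DMSO vehicle control viability.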

SMILES: Cc1[nH]c2ccccc2c1CCNCc1ccc(/C=C/C(=O)NO)cc1 + CN(C)c1ccc(Nc2c3ccc(NC(=O)CCN4CCCC4)cc3nc3cc(NC(=O)CCN4CCCC4)ccc23)cc1
- IC50 (second compound 0.0316 µM): 55 nM
- IC50 (second compound 0.1 µM): 51.4 nM
- IC50 (second compound 0.316 µM): < 0.999 nM
- IC50 (second compound 1 µM): < 0.999 nM
- IC50 (second compound 3.16 µM): < 0.999 nM
- IC50 (second compound 10 µM): < 0.999 nM
- viability, T/C [1]: 96.9%
- viability, T/C [2]: 104%
- viability, T/C [3]: 89.9%
- viability, T/C [4]: 76.9%
- viability, T/C [5]: 22%
- viability, T/C [6]: 0.39%
- viability, T/C [7]: 95.4%
- viability, T/C [8]: 75.1%
- viability, T/C [9]: 84.5%
- viability, T/C [10]: 71.8%
- viability, T/C [11]: 20.2%
- viability, T/C [12]: 0.39%
- viability, T/C [13]: 46.9%
- viability, T/C [14]: 45.1%
- viability, T/C [15]: 48.8%
- viability, T/C [16]: 28%
- viability, T/C [17]: 10.8%
- viability, T/C [18]: 0.26%
- viability, T/C [19]: 4.23%
- viability, T/C [20]: 3.43%
- viability, T/C [21]: 4.51%
- viability, T/C [22]: 1.92%
- viability, T/C [23]: 0.8%
- viability, T/C [24]: 0.38%
- viability, T/C [25]: 0.41%
- viability, T/C [26]: 0.27%
- viability, T/C [27]: 0.37%
- viability, T/C [28]: 0.25%
- viability, T/C [29]: 0.14%
- viability, T/C [30]: 0.13%
- viability, T/C [31]: 0.18%
- viability, T/C [32]: 0.19%
- viability, T/C [33]: 0.16%
- viability, T/C [34]: 0.44%
- viability, T/C [35]: 0.27%
- viability, T/C [36]: 0.17%

SMILES: C=CCn1c(=O)c2cnc(Nc3ccc(N4CCN(C)CC4)cc3)nc2n1-c1cccc(C(C)(C)O)n1 + Cc1[nH]c2ccc(F)cc2c1-c1nc2c3cccnc3c3ncccc3c2[nH]1
- IC50 (second compound 0.0316 µM): 624 nM
- IC50 (second compound 0.1 µM): 592 nM
- IC50 (second compound 0.316 µM): 370 nM
- IC50 (second compound 1 µM): 132 nM
- IC50 (second compound 3.16 µM): < 31.6 nM
- IC50 (second compound 10 µM): < 31.6 nM
- viability, T/C [4]: 91.2%
- viability, T/C (second compound 0.0316 µM, first compound 0.1 µM): 94%
- viability, T/C [6]: 77%
- viability, T/C (second compound 0.0316 µM, first compound 1 µM): 31.3%
- viability, T/C (second compound 0.0316 µM, first compound 3.16 µM): 21.4%
- viability, T/C (second compound 0.0316 µM, first compound 10 µM): 23.4%
- viability, T/C [10]: 103%
- viability, T/C (second compound 0.1 µM, first compound 0.1 µM): 86%
- viability, T/C [12]: 68.1%
- viability, T/C (second compound 0.1 µM, first compound 1 µM): 36.7%
- viability, T/C (second compound 0.1 µM, first compound 3.16 µM): 20.5%
- viability, T/C (second compound 0.1 µM, first compound 10 µM): 23.2%
- viability, T/C [16]: 78.3%
- viability, T/C (second compound 0.316 µM, first compound 0.1 µM): 65.4%
- viability, T/C [18]: 56%
- viability, T/C (second compound 0.316 µM, first compound 1 µM): 28.1%
- viability, T/C (second compound 0.316 µM, first compound 3.16 µM): 23.1%
- viability, T/C (second compound 0.316 µM, first compound 10 µM): 25%
- viability, T/C [22]: 68.1%
- viability, T/C (second compound 1 µM, first compound 0.1 µM): 51.4%
- viability, T/C [24]: 42.5%
- viability, T/C (second compound 1 µM, first compound 1 µM): 25.5%
- viability, T/C (second compound 1 µM, first compound 3.16 µM): 23.4%
- viability, T/C (second compound 1 µM, first compound 10 µM): 21.3%
- viability, T/C [28]: 11.4%
- viability, T/C (second compound 3.16 µM, first compound 0.1 µM): 5.61%
- viability, T/C [30]: 5.52%
- viability, T/C (second compound 3.16 µM, first compound 1 µM): 4.19%
- viability, T/C (second compound 3.16 µM, first compound 3.16 µM): 5.08%
- viability, T/C (second compound 3.16 µM, first compound 10 µM): 4.35%
- viability, T/C [34]: 43.9%
- viability, T/C (second compound 10 µM, first compound 0.1 µM): 30.7%
- viability, T/C [36]: 23.1%
- viability, T/C (second compound 10 µM, first compound 1 µM): 17.5%
- viability, T/C (second compound 10 µM, first compound 3.16 µM): 15.7%
- viability, T/C (second compound 10 µM, first compound 10 µM): 13.6%

SMILES: CCc1c2c(nc3ccc(O)cc13)-c1cc3c(c(=O)n1C2)COC(=O)[C@]3(O)CC + Cc1[nH]c2ccc(F)cc2c1-c1nc2c3cccnc3c3ncccc3c2[nH]1
- IC50 (second compound 0.0316 µM): 2.72 nM
- IC50 (second compound 0.1 µM): 2.74 nM
- IC50 (second compound 0.316 µM): 2.61 nM
- IC50 (second compound 1 µM): 2.24 nM
- IC50 (second compound 3.16 µM): < 0.999 nM
- IC50 (second compound 10 µM): < 0.999 nM
- viability, T/C [1]: 80.3%
- viability, T/C [2]: 42.4%
- viability, T/C [3]: 35.7%
- viability, T/C [4]: 33.1%
- viability, T/C [5]: 25.8%
- viability, T/C [6]: 23.3%
- viability, T/C [7]: 78.6%
- viability, T/C [8]: 43.2%
- viability, T/C [9]: 35.6%
- viability, T/C [10]: 33.8%
- viability, T/C [11]: 28.5%
- viability, T/C [12]: 22.6%
- viability, T/C [13]: 74.4%
- viability, T/C [14]: 42.9%
- viability, T/C [15]: 34.8%
- viability, T/C [16]: 33.4%
- viability, T/C [17]: 27%
- viability, T/C [18]: 23.4%
- viability, T/C [19]: 66.6%
- viability, T/C [20]: 39.5%
- viability, T/C [21]: 34.4%
- viability, T/C [22]: 27.8%
- viability, T/C [23]: 23.6%
- viability, T/C [24]: 18.7%
- viability, T/C [25]: 19.9%
- viability, T/C [26]: 14.7%
- viability, T/C [27]: 14.6%
- viability, T/C [28]: 11%
- viability, T/C [29]: 10.2%
- viability, T/C [30]: 7.94%
- viability, T/C [31]: 32%
- viability, T/C [32]: 33.6%
- viability, T/C [33]: 25.1%
- viability, T/C [34]: 19.4%
- viability, T/C [35]: 17%
- viability, T/C [36]: 12.5%
